Numbers after ± are expanded uncertainties.
Experiments:
[1] = xn = mol fraction of the nth substance listed; conditions: 101 kPa, Liquid, x1 = 1
[2] = Liquid

| Structure (SMILES) | mass density ([1]; 288.15 K) [kg/m3] | mass density ([1]; 293.15 K) [kg/m3] | mass density ([1]; 298.15 K) [kg/m3] | mass density ([1]; 303.15 K) [kg/m3] | mass density ([1]; 308.15 K) [kg/m3] | mass density ([1]; 313.15 K) [kg/m3] | mass density ([2]; 298.15 K, 101.33 kPa) [kg/m3] | mass density ([2]; 288.15 K, 101 kPa) [kg/m3] | mass density ([2]; 293.15 K, 101 kPa) [kg/m3] | mass density ([2]; 298.15 K, 101 kPa) [kg/m3] | mass density ([2]; 303.15 K, 101 kPa) [kg/m3] | mass density ([2]; 308.15 K, 101 kPa) [kg/m3] | mass density ([2]; 313.15 K, 101 kPa) [kg/m3] |
| --- | --- | --- | --- | --- | --- | --- | --- | --- | --- | --- | --- | --- | --- |
| CO [methanol] + ClC(Cl)Cl | 796.093 ± 0.23 | 791.4 ± 0.23 | 786.694 ± 0.23 | 781.966 ± 0.24 | 777.213 ± 0.24 | 772.443 ± 0.24 | – | – | – | – | – | – | – |
| c1ccccc1 [benzene] | – | – | – | – | – | – | 873.582 ± 0.16 | – | – | – | – | – | – |
| ClC(Cl)Cl [trichloromethane] | – | – | – | – | – | – | – | 1498.08 ± 0.47 | 1488.64 ± 0.46 | 1479.15 ± 0.45 | 1469.61 ± 0.45 | 1460.03 ± 0.44 | 1450.41 ± 0.43 |
| CO [methanol] | – | – | – | – | – | – | – | 796.093 ± 0.23 | 791.4 ± 0.23 | 786.694 ± 0.23 | 781.966 ± 0.24 | 777.213 ± 0.24 | 772.443 ± 0.24 |
